In ChEMBL document CHEMBL1135256, “Benzimidazole-4,7-diones as inhibitors of protozoal (Toxoplasma gondii) purine nucleoside phosphorylase” (Bioorg Med Chem Lett, 2002) one finds inhibition data, which are given here for nine compounds.

The subject of assay [1] is Purine nucleoside phosphorylase (Toxoplasma gondii). In words: Inhibition of Toxoplasma gondii purine nucleoside phosphorylase from virulent strain RH at 1 mM.
The test system is the same in assay [2]. Nature of the assay: Inhibition of Toxoplasma gondii purine nucleoside phosphorylase from cystic strain ME 49 at 1 mM.
The test system is the same in assay [3]. In words: Inhibition of Toxoplasma gondii purine nucleoside phosphorylase from virulent strain RH at 4 mM.
For assay [4] the test system is unchanged. Nature of the assay: Inhibition of Toxoplasma gondii purine nucleoside phosphorylase from cystic strain ME 49 at 4 mM.
The target of assay [5] is T1, Purine nucleoside phosphorylase (Homo sapiens) (UniProt P00491).
T1 sequence (whole entry): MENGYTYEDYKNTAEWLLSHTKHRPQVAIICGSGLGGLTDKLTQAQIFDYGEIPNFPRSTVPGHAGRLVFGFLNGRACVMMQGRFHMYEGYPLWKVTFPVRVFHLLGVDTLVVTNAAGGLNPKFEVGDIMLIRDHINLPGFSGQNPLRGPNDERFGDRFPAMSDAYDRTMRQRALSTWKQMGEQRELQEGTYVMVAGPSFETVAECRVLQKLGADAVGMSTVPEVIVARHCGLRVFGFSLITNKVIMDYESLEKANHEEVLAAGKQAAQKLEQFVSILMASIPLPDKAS
In words: Compound was evaluated for its ability to inhibit in vitro Toxoplasma gondii purine nucleoside phosphorylase from cystic strain ME 49 at a concentration of 4 mM.

SMILES strings stand for the structures.

As for `O=C1C=CC(=O)c2c1ncn2Cc1cccc(F)c1`, the inhibition in assay [1] was 65%; in assay [2], 60%; in assay [3], 100%; in assay [4], 100%.

For the compound `O=C1C=CC(=O)c2c1ncn2Cc1ccccc1F`, the inhibition in assay [1] came out at 70%; in assay [2], 62%; in assay [3], 87%; in assay [4], 89%.

Regarding `O=C1C=CC(=O)c2c1ncn2Cc1ccc(F)cc1`, the inhibition in assay [1] came to 80%; in assay [5], 100%; in assay [2], 56%; in assay [3], 88%.

Take `CCCCn1cnc2c1C(=O)C=CC2=O`: the inhibition came out at 45% in assay [1], 53% in assay [2], 68% in assay [3] and 65% in assay [4].

Take `O=C1C=CC(=O)c2c1nc(Cc1ccccc1)n2Cc1ccccc1`: the inhibition in assay [1] amounted to 65%; in assay [2], 61%; in assay [3], 80%; in assay [4], 78%.

Turning to `Cn1cnc2c1C(=O)C=CC2=O`, the inhibition in assay [1] stood at 55%; in assay [2] it was 31%; in assay [3], 85%; in assay [4] it was 82%.

On to `O=C1C=CC(=O)c2[nH]cnc21`, for which the inhibition in assay [1] is 47%; in assay [2] it was 52%; in assay [3], 68%; in assay [4] it was 71%.

As for `O=c1[nH]cnc2c1cnn2[C@@H]1O[C@H](CO)[C@@H](O)[C@H]1O`, the inhibition in assay [1] is 8%; in assay [2], 11%; in assay [3], 28%; in assay [4] it was 22%.

As for `Cc1nc2c(n1Cc1ccccc1)C(=O)C=CC2=O`, the inhibition in assay [1] is 54%; in assay [2], 66%; in assay [3] it was 82%; in assay [4], 92%.
